# Measurements: patent US20040102364A1, “Backbone cyclized radiolabelled somatostatin analogs” (priority 2001, published 2004)
# Like-named read-outs stand apart in the source and are kept apart here.
# Assays:
# [1] = target: T1, human cloned SST-R2 (Homo sapiens, UniProt P30874); experiment: Inhibition of 125I-Tyr11-SRIF binding to cloned human SST-R2 membranes (CHO cells)
# T1 construct: expressed in transfected cells; host or cells: CHO cells
# Experimental: (§1) The SST analogs were tested for their potency in inhibition of the binding of ^125I-Tyr^11-SRIF (based on the method described by Raynor et. al., Molecular Pharmacology 43: 838, 1993) to membrane preparations expressing the transmembranal SST receptors (SST-R1, 2, 3, 4 or 5). The receptor preparations used for these tests were either from the cloned human receptors selectively and stably expressed in Chinese Hamster Ovary (CHO) cells or from cell lines naturally expressing the SST-Rs. […] The binding reactions were filtered, the filters were washed and the bound radioactivity was counted in β counter after addition of scintillation solution.
# [2] = target: SST-R2 (Homo sapiens, UniProt P30874); experiment: Inhibition of SRIF binding to SST-R2 (species not stated); details: for inhibition at 10 pM: read-out: IC50 Screen SRIF Inhibited (%) 0.01 nM; for inhibition at 0.0001 µM: read-out: IC50 Screen SRIF Inhibited (%) 0.1 nM; for inhibition at 0.001 µM: read-out: IC50 Screen SRIF Inhibited (%) 1 nM
# Experimental: as §1, with “solution. […]” for “solution.”
# [3] = target: rat SST-R1 (Rattus norvegicus, UniProt P28646); experiment: Subtype selectivity binding, rat SST-R1
# Experimental: as §1
# (§2) MPS-30012-02, 30012-08 and 30012-24 were all re-synthesized naked, purified and radiolabelled with ^99mTc. In vitro binding studies on all three ^99mTc compounds was performed. 30012-05, 30012-08 and 30012-24 were screened for subtype selectivity analysis.
# [4] = target: rat SST-R2 (Rattus norvegicus, UniProt P30680); experiment: Subtype selectivity binding, rat SST-R2
# Experimental: as §1, §2
# [5] = target: rat SST-R3 (Rattus norvegicus, UniProt P30936); experiment: Subtype selectivity binding, rat SST-R3
# Experimental: as §1, §2
# [6] = target: rat SST-R4 (Rattus norvegicus, UniProt P30937); experiment: Subtype selectivity binding, rat SST-R4
# Experimental: as §1, §2
# [7] = target: T2, rat SST-R5 (Rattus norvegicus, UniProt P30938); experiment: Subtype selectivity binding, rat SST-R5
# T2 sequence (P30938 1-363): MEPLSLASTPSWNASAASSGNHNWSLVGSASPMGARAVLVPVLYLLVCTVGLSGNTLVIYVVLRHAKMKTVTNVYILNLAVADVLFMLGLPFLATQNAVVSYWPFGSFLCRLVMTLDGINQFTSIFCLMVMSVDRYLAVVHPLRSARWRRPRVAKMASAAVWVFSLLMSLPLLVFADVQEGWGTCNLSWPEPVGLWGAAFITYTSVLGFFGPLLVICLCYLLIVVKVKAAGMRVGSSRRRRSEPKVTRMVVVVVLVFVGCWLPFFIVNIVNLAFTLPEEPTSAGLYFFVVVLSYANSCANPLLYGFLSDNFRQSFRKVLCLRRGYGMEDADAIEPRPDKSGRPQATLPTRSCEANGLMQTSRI
# Experimental: as §1, §2
# [8] = human cloned receptor, read-out: Concentration (nM) of SST analogs to inhibit SRIF binding by 50%, SST-R 2
# [9] = Quick Screen, 10 nM, SST-R2, read-out: Quick Screen SRIF Inhibited (%) 10 nM
# [10] = Quick Screen, 100 nM, SST-R2, read-out: Quick Screen SRIF Inhibited (%) 100 nM
# [11] = read-out: IC50 Screen SRIF Inhibited (%) 10 nM
# [12] = read-out: IC50 Screen SRIF Inhibited (%) 100 nM
# [13] = # rows: determined in rat somatostatin receptors, read-out: Concentration (nM) of SST analogs to inhibit SRIF binding by 50%, SST-R 1
# [14] = rat SST-R1, read-out: Selectivity: IC50, nM, rat SST-R-1
# [15] = # rows: determined in rat somatostatin receptors, read-out: Concentration (nM) of SST analogs to inhibit SRIF binding by 50%, SST-R 2
# [16] = rat SST-R2, read-out: Selectivity: IC50, nM, rat SST-R-2
# [17] = # rows: determined in rat somatostatin receptors, read-out: Concentration (nM) of SST analogs to inhibit SRIF binding by 50%, SST-R 3
# [18] = rat SST-R3, read-out: Selectivity: IC50, nM, rat SST-R-3
# [19] = # rows: determined in rat somatostatin receptors, read-out: Concentration (nM) of SST analogs to inhibit SRIF binding by 50%, SST-R 4
# [20] = rat SST-R4, read-out: Selectivity: IC50, nM, rat SST-R-4
# [21] = # rows: determined in rat somatostatin receptors, read-out: Concentration (nM) of SST analogs to inhibit SRIF binding by 50%, SST-R 5
# [22] = rat SST-R5, read-out: Selectivity: IC50, nM, rat SST-R-5
# SST-R2, sequence (P30874 whole entry): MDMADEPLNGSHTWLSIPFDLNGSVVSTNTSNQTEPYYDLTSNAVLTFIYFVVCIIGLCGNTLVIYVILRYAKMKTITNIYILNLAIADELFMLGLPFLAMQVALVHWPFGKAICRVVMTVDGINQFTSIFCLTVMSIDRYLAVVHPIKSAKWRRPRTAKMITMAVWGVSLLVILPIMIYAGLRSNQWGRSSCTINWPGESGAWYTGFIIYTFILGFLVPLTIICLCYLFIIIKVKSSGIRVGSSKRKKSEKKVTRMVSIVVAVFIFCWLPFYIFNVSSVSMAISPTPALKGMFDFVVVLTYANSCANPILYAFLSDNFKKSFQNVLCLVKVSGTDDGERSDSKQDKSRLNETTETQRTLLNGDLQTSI
# T1 sequence (P30874 whole entry): as above
# rat SST-R2, sequence (P30680 whole entry): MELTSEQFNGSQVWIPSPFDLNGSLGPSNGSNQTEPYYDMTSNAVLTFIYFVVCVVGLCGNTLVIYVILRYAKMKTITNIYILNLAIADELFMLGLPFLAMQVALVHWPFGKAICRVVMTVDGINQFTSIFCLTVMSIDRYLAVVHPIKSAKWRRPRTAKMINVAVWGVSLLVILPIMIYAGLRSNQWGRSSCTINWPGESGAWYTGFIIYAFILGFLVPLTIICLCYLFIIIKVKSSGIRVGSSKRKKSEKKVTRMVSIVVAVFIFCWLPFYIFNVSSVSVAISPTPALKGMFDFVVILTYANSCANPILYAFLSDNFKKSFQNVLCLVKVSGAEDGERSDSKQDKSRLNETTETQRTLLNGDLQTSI
# rat SST-R3, sequence (P30936 whole entry): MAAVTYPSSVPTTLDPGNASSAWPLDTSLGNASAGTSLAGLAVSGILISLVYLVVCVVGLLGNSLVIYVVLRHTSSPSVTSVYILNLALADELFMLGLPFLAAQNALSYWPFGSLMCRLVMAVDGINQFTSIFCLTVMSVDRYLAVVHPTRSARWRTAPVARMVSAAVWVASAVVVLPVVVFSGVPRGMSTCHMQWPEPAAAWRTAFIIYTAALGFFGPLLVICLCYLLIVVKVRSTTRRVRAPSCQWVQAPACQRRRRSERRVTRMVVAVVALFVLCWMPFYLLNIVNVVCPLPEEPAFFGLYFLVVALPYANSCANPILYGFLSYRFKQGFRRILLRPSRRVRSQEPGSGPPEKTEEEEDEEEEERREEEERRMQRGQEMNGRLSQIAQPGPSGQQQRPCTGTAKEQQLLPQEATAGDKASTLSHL
# rat SST-R4, sequence (P30937 whole entry): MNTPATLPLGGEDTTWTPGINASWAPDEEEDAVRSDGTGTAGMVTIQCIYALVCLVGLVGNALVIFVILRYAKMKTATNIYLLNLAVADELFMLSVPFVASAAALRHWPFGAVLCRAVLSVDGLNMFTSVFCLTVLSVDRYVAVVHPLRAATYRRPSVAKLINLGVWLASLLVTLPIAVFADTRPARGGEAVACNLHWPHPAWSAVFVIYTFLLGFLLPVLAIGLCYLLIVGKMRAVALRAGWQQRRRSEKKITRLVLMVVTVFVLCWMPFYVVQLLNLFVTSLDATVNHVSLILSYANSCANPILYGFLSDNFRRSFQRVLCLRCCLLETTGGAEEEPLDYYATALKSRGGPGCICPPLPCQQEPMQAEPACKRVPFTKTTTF
# rat SST-R1, sequence (P28646 whole entry): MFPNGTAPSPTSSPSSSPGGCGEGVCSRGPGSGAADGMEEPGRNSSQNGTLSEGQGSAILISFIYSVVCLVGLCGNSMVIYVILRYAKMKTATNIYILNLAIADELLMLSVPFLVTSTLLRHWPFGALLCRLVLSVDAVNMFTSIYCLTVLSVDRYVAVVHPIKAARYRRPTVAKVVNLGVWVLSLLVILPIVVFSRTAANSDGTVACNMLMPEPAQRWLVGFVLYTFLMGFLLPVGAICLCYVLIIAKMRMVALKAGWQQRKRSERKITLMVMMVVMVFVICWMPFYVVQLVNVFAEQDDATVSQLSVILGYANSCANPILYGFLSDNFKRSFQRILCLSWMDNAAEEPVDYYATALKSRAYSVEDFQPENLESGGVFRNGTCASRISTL
molecule,measurement,setting,value
"C[C@@H](O)[C@@H]1NC(=O)[C@H](CCCCN)NC(=O)[C@@H](Cc2c[nH]c3ccccc23)NC(=O)[C@H](Cc2ccccc2)NC(=O)[C@@H]2CSSC[C@H](NC1=O)C(=O)N([C@@H](Cc1ccccc1)C(N)=O)CCCNC(=O)CCCN(C(=O)CNC(=O)CNC(=O)CNC(=O)CS)[C@@H](Cc1ccccc1)C(=O)N2 [PTR 3261, MAG3-PheC3-Cys-Phe-(D)Trp-Lys-Thr-Cys-PheN3-NH2]",IC50,"[1]; human cloned SST-R2, 95% confidence interval given, read-out: IC50 calculated from the binding results of Table 3",119 nM
same,IC50,[1]; [8],100 nM
same,"Total Bound (3-[125I]tyrosyl11)somatostatin-14 (cpm), Run 1",[1]; peptide conc. 10 nM,8335 cpm
same,"Total Bound (3-[125I]tyrosyl11)somatostatin-14 (cpm), Run 2",[1]; peptide conc. 10 nM,8820 cpm
same,"Total Bound (3-[125I]tyrosyl11)somatostatin-14 (cpm), Run 3",[1]; peptide conc. 10 nM,8098 cpm
same,"Total Bound (3-[125I]tyrosyl11)somatostatin-14 (cpm), Run 1",[1]; peptide conc. 100 nM,5398 cpm
same,"Total Bound (3-[125I]tyrosyl11)somatostatin-14 (cpm), Run 2",[1]; peptide conc. 100 nM,5328 cpm
same,"Total Bound (3-[125I]tyrosyl11)somatostatin-14 (cpm), Run 3",[1]; peptide conc. 100 nM,5679 cpm
same,"Total Bound (3-[125I]tyrosyl11)somatostatin-14 (cpm), Run 1",[1]; peptide conc. 1000 nM,1941 cpm
same,"Total Bound (3-[125I]tyrosyl11)somatostatin-14 (cpm), Run 2",[1]; peptide conc. 1000 nM,3169 cpm
same,"Total Bound (3-[125I]tyrosyl11)somatostatin-14 (cpm), Run 3",[1]; peptide conc. 1000 nM,2024 cpm
same,"Total Bound (3-[125I]tyrosyl11)somatostatin-14 (cpm), Run 1",[1]; peptide conc. 10000 nM,917 cpm
same,"Total Bound (3-[125I]tyrosyl11)somatostatin-14 (cpm), Run 2",[1]; peptide conc. 10000 nM,1106 cpm
same,"Total Bound (3-[125I]tyrosyl11)somatostatin-14 (cpm), Run 3",[1]; peptide conc. 10000 nM,2281 cpm
"C[C@@H](O)[C@@H]1NC(=O)[C@H](CCCCN)NC(=O)[C@@H](Cc2c[nH]c3ccccc23)NC(=O)[C@H](Cc2c[nH]c3ccccc23)NC(=O)[C@H](Cc2ccccc2)NC(=O)[C@@H](NC(=O)CN(CCN(CCN(CC(=O)O)CC(=O)O)CC(=O)O)CC(=O)O)CCNC(=O)CCCN(CC(N)=O)C(=O)[C@H](Cc2ccccc2)NC1=O [PTR 3337, In-DTPA-Dab*-Phe-Trp-(D)Trp-Lys-Thr-Phe-GlyC3*-NH2]",inhibition at 0.01 µM,[2]; [9],53%
same,inhibition at 0.1 µM,[2]; [10],87%
same,inhibition at 10 pM,[2],-8.5%
same,inhibition at 0.0001 µM,[2],10%
same,inhibition at 0.001 µM,[2],37%
same,inhibition at 0.01 µM,[2]; [11],69%
same,inhibition at 0.1 µM,[2]; [12],89%
"C[C@@H](O)[C@@H]1NC(=O)[C@H](CCCCN)NC(=O)[C@@H](Cc2c[nH]c3ccccc23)NC(=O)[C@H](Cc2c[nH]c3ccccc23)NC(=O)[C@H](Cc2ccccc2)NC(=O)[C@@H](NC(=O)CNC(=O)CN(CCN(CCN(CC(=O)O)CC(=O)O)CC(=O)O)CC(=O)O)CCNC(=O)CCCN(CC(N)=O)C(=O)[C@H](Cc2ccccc2)NC1=O [PTR 3319, In-DTPA-Gly-Dab*-Phe-Trp-(D)Trp-Lys-Thr-Phe-GlyC3*-NH2]",inhibition at 0.01 µM,[2]; [9],65%
same,inhibition at 0.1 µM,[2]; [10],83%
same,inhibition at 10 pM,[2],-8.5%
same,inhibition at 0.0001 µM,[2],-0.67%
same,inhibition at 0.001 µM,[2],30%
same,inhibition at 0.01 µM,[2]; [11],57%
same,inhibition at 0.1 µM,[2]; [12],86%
ReO-MA-Gly-Gly-Gly-6-aminohexanoic acid-Dab*-Phe-Trp-(D)Trp-Lys-Thr-Phe-GlyC3*-NH2 [PTR 3401],IC50,[3]; [13],402 nM
same,IC50,[3]; [14],402 nM
same,IC50,[4]; [15],0.44 nM
same,IC50,[4]; [16],0.44 nM
same,IC50,[5]; [17],110 nM
same,IC50,[5]; [18],110 nM
same,IC50,[6]; [19],20 nM
same,IC50,[6]; [20],20 nM
same,IC50,[7]; [21],3.7 nM
same,IC50,[7]; [22],3.7 nM
"C[C@@H](O)[C@@H]1NC(=O)[C@H](CCCCN)NC(=O)[C@@H](Cc2c[nH]c3ccccc23)NC(=O)[C@H](Cc2c[nH]c3ccccc23)NC(=O)[C@H](Cc2ccccc2)NC(=O)[C@@H](NC(=O)CCCNC(=O)CN(CCN(CCN(CC(=O)O)CC(=O)O)CC(=O)O)CC(=O)O)CCNC(=O)CCCN(CC(N)=O)C(=O)[C@H](Cc2ccccc2)NC1=O [PTR 3341, In-DTPA-GABA-Dab*-Phe-Trp-(D)Trp-Lys-Thr-Phe-GlyC3*-NH2]",inhibition at 0.01 µM,[2]; [9],35%
same,inhibition at 0.1 µM,[2]; [10],76%
same,inhibition at 10 pM,[2],-9.5%
same,inhibition at 0.0001 µM,[2],-4.8%
same,inhibition at 0.001 µM,[2],12%
same,inhibition at 0.01 µM,[2]; [11],44%
same,inhibition at 0.1 µM,[2]; [12],76%
In-DTPA-GABA-Phe(C3**)-Cys*-Phe-(D)Trp-Lys-Thr-Cys*-Phe(N3 **)-NH2 [PTR 3351],SRIF Inhibited (%) 10 nM,"[2]; 10 nM, SST-R2",5%
same,SRIF Inhibited (%) 100 nM,"[2]; 100 nM, SST-R2",53%
ReO-MA-Dpr(Gly)-Gly-Dab*-Phe-Trp-(D)Trp-Lys-Thr-Phe-GlyC3*-NH2 [ReO-3397],IC50,[3]; [13],89 nM
same,IC50,[3]; [14],89 nM
same,IC50,[4]; [15],0.25 nM
same,IC50,[4]; [16],0.25 nM
same,IC50,[5]; [17],76 nM
same,IC50,[5]; [18],76 nM
same,IC50,[6]; [19],3.3 nM
same,IC50,[6]; [20],3.3 nM
same,IC50,[7]; [21],2.2 nM
same,IC50,[7]; [22],2.2 nM
ReO-MA-Dpr(Gly)-Dab*-Phe-Trp-(D)Trp-Lys-Thr-Phe-GlyC3*-NH2 [PTR 3395],IC50,[1]; [8],1.14 nM
